Eleven molecules from patent US20040219607A1, “Ligand screening and design by X-ray crystallography” (priority 1998, published 2004) can be followed below.

Broadly, the Ki is the dissociation constant of the complex between target and ligand, obtained from inhibition or displacement. The term pKa denotes the pH at which an ionisable group is half protonated. A low value points to a group that gives up its proton readily. In general, bioavailability refers to dose-corrected exposure relative to a reference, in per cent.

Where two headings read alike, the source gives them in different places. Some results are limits rather than exact numbers.

For one data set, the target named is T1, human urokinase (μUK) (Homo sapiens, UniProt P00749, C299A/N322Q).
T1 construct: μUK (UK amino acids Ile^159-Lys^404 that contain Ala^279Gln^302); made in house; host or cells: baculovirus-infected High-Five insect cells or Pichia pastoris GS115 (secreted)
Nature of the data set: Urokinase inhibition constants by S-2444 chromogenic activity. Type of data set: biochemical. As for the experimental part:
Assays were completed at both pH 6.5 (0.1 M NaPO4) and 7.4 (50 mM Tris).

A further data set concerns the target μUK (Homo sapiens, UniProt P00749, C299A/N322Q). The note with it: for binding at the urokinase active site seen in Fo-Fc electron density map: crystal soaked in mixture of 6 to 7 compounds, 3.3 to 5.2 mM each, compound 31 soaked individually.
Data set [1] can be described thus: Oral bioavailability in the rat. Particulars: in vivo, 10 mg/kg dose.
The target of a further data set is VanX (Enterococcus faecium, UniProt Q06241). Nature of the data set: CrystaLEAD crystallographic screening of VanX crystals. Particulars: crystals soaked in mixtures of 7-10 compounds.
VanX, sequence (Q06241 whole entry): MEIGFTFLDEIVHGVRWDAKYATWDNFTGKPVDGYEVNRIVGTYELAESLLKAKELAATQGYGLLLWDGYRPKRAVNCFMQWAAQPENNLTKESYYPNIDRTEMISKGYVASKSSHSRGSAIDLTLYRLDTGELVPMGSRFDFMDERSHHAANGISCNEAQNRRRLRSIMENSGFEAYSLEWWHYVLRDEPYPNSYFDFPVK
A further data set has as its target T2, ErmC′ (Bacillus subtilis, UniProt P13956).
T2 construct: made in house; host or cells: E. coli BL21(DE3)/pLysS with pTERM31 (pET24+ derivative)
Nature of the data set: CrystaLEAD crystallographic screening of ErmC′ crystals. Particulars: adenosine library, mixtures of 8-9 compounds. The class given is binding. An excerpt:
The adenosine library consisted of 59 compounds. The library was divided into 7 mixtures of 8-9 shape-diverse compounds and screened by the CrystaLEAD™ method. […] Equal volumes of each compound were mixed to assemble the mixture of […].
Typical usable data were 80-90% complete at 3.4-3.6 Å resolution with merging R-factors of 7-16%.

Where [2] appears, read: pH 6.5 (0.1 M NaPO4), S-2444 substrate, read-out: Ki (pH 6.5).
The mark [3] stands for this setting: pH 7.4 (50 mM Tris), S-2444 substrate, read-out: Ki (pH 7.4).

T2 sequence (P13956 whole entry): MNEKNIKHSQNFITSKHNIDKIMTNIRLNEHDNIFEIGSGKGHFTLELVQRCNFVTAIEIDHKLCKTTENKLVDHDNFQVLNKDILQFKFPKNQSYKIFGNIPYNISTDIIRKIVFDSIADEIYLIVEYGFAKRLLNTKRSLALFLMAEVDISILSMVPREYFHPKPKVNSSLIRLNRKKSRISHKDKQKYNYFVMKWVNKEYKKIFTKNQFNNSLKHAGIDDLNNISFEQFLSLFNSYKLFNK

Regarding `Cc1nc(N)ccc1Br` [Compound 5], the Ki at human urokinase (μUK) (setting [2]) and at human urokinase (μUK) (setting [3]) was greater than 500 µM throughout. Besides, the “binding at the urokinase active site seen in Fo-Fc electron density map” value (“binding … in Fo-Fc electron density map” for short) on μUK is listed as “binder”. In “pKa of CrystaLEAD hits”, the pKa came to 6.

For the molecule `Nc1ccc2cccc(O)c2n1` [Compound 19, 2-amino-8-hydroxyquinoline], the Ki is 137 µM at human urokinase (μUK) (Ki (pH 7.4), pH 7.4 (50 mM Tris), S-2444 substrate) and 56 µM at human urokinase (μUK) (Ki at pH 6.5, pH 6.5, restated in Example 3). For the same molecule, at μUK, the “binding … in Fo-Fc electron density map” value is “bound”. Moreover, the “binding at the urokinase active site seen in electron density map, 100 compound mixture” value on μUK (mixture of 100 compounds spiked with compound 19 at 180 μM, 1% DMSO, 4 hours 15 minutes soak) was “positive hit”. Also, the pKa in the data set “pKa of CrystaLEAD hits” was found to be 7.3.

In the case of `Nc1ccc2c(c1)CC=N2` [Compound 22, 5-aminoindole], the Ki at human urokinase (μUK) (setting [2]) is 200 µM; at human urokinase (μUK) (setting [3]), greater than 500 µM. For the same molecule, the “binding … in Fo-Fc electron density map” value at μUK was “found to bind”. The molecule further registered a pKa in the data set “pKa of CrystaLEAD hits” of 6.

With `Cc1ccc(N)nc1` [Compound 31], the Ki on human urokinase (μUK) (Ki (pH 6.5)) and on human urokinase (μUK) (Ki (pH 7.4)) was greater than 500 µM in each case. Besides, the “binding … in Fo-Fc electron density map” value at μUK was “found to bind”. Moreover, the pKa in the data set “pKa of CrystaLEAD hits” turned out to be 7.

`Nc1ccc2cccc(Nc3ncccn3)c2n1` [Compound 35, 8-aminopyrimidinyl-2-aminoquinoline] showed a bioavailability in data set [1] of 30 to 40%.

Consider `O=C(O)C1CCCC1` [Compound 36], for which, on VanX, the “binding at the VanX active site seen in electron density map” value (shortened to “binding at the VanX active site seen”) is listed as “bound”.

As for `O=C(O)CCC1CCCC1` [Compound 37], at VanX, the “binding at the VanX active site seen” value is “found to bind”.

As for `O=C(O)C(=O)CS` [Compound 39], on VanX, the “binding at the VanX active site seen” value was “bound”.

`N[C@@H](CS)C(=O)O` [Compound 41]: the “binding at the VanX active site seen” value on VanX was “binding”.

Regarding `OCC1OC(n2cnc3c(NCc4ccccc4)ncnc32)C(O)C1O` (stereo not drawn) [Compound 44], the “binding to ErmC′ seen in electron density map” value on ErmC′ is “hits”.

Take `OCC1OC(n2cnc3c(NC4CCCCC4)ncnc32)C(O)C1O` (stereo not drawn) [Compound 45]: the “binding to ErmC′ seen in electron density map” value at ErmC′ is recorded as “hits”.
